Data on 5 compounds can be found in patent US20250353819A1, “ARYL HYDANTOIN COMPOUNDS AND METHODS OF USE” (priority 2022, published 2025).

Structures are written as SMILES. Like-named read-outs stand apart in the source and are kept apart here. Bounds are passed on as bounds.

One data set concerns androgen-receptor. Put plainly: DHT-induced (KLK3, FKBP5) and DHT-repressed (ZFP36L1) transcripts in LAPC4 cells. It is filed as cell-based. To be noted: Compound IE up to 10 μM.
In data set [1] the test system is S. mansoni. To be noted: cited from earlier work.
A short description of data set [2]: In vitro metabolic stability, human liver microsomes. It is filed as in vitro ADME. How it is done:
(§1) In Vitro Metabolic Stability. As described by Charman et al. (2020), metabolic stability assays were performed by incubating test compounds in liver microsomes at 37° C. and 0.4 mg/mL protein concentration. The metabolic reaction was initiated by the addition of an NADPH-regenerating system and quenched at various time points over a 60 min incubation period by the addition of acetonitrile containing diazepam as internal standard. Control samples (containing no NADPH) were included (and quenched at 2, 30 and 60 min) to monitor for potential degradation in the absence of cofactor.
Background: Liver microsomes are a subcellular fraction often used to study metabolism.

Data set [3] concerns S. mansoni. Put plainly: Antischistosomal screen in S. mansoni-infected mice. The class given is in vivo, Schistosoma mansoni. To be noted: for ED50: Schistosoma mansoni; for Worm burden reduction (WBR): single oral dose Ro 13-3978 100 mg/kg, praziquantel 400 mg/kg. From the text:
Antischistosomal Screen. […] As described by Lombardo et al. (2019), cercariae of S. mansoni were obtained from infected Biomphalaria glabrata. By way of example, NMRI mice were infected subcutaneously with approximately 100 S. mansoni cercariae. […] Untreated mice (n=8) served as controls. At 21 d post-treatment, animals were killed by the CO2 method and dissected. Worms were removed by picking, then sexed and counted.

A short description of data set [4]: Kinetic solubility (nephelometry). It is filed as physicochemical. Here is the method: Kinetic Solubility. Compounds in DMSO (10 mg/mL) were diluted into either pH 6.5 phosphate buffer or 0.01 M HCl (approx. pH 2.0) with the final DMSO concentration being 1%. Samples were then analysed via nephelometry to determine a solubility range (Bevan and Lloyd, 2000).

In the next data set the test system is LAPC4 cells. The data set is described as follows: Androgen-dependent cell-based assay (DHT, LAPC4). As to conditions: Homo sapiens. Here is the method:
Androgen-Dependent Cell-based Assay. As described by Jones and Diamond (2008), LAPC4 cells were cultured in phenol red free RPMI 1640 media supplemented with antibiotics and 10% FBS. […] […] Mean-effect plots (log[compound] vs. log[fractional effect]) were generated to determine the IC50 values for each test compound or combinations of test compounds at constant ratios.

The nature of data set [5]: In vitro metabolic stability, mouse liver microsomes. It is filed as in vitro ADME. How it is done:
as §1

Data set [6] can be described thus: Partition coefficient (Log D) by gradient HPLC. The class given is physicochemical. From the text:
Partition Coefficient. Partition coefficient values (Log D) of the test compounds were estimated by correlation of their chromatographic retention properties against the characteristics of a series of standard compounds with known partition coefficient values using gradient HPLC (modification of a method reported by Lombardo et al., 2001).

Data set [7] is described as follows: Mouse exposure / pharmacokinetic studies. As to conditions: male, Swiss outbred, mouse, in vivo. It is filed as in vivo, mice.
The mark [8] stands for this setting: adult stage, single oral dose, mouse model, read-out: S. mansoni ED50, adult.
Setting [9] is: juvenile stage, single oral dose, mouse model, read-out: S. mansoni ED50, juvenile.
[10] abbreviates: DHT-induced, androgen-dependent LAPC4 prostate cancer cell line, read-out: LAPC4 IC50.
The mark [11] stands for this setting: pH 7.4, chromatographic estimate, read-out: gLogD7.4.

On to `CC1(C)NC(=O)N(c2ccc([N+](=O)[O-])c(C(F)(F)F)c2)C1=O` [nilutamide, reference compound], for which, in the data set on androgen-receptor, the “levels of DHT-induced (KLK3, FKBP5) and DHT-repressed (ZFP36L1) transcripts” value was “inhibited the DHT-induced increase of KLK3 and FKBP5 and prevented the repression of ZFP36L1”. The antischistosomal activity entry in the data set with S. mansoni [1] (Keiser et al., 2010) is given as “very weak”.
With `[2H]C([2H])([2H])C1(C([2H])([2H])[2H])NC(=O)N(c2ccc(F)c(C(F)(F)F)c2)C1=O` [IB, 3-(4-Fluoro-3-(trifluoromethyl)phenyl)-5,5-bis(methyl-d3)imidazolidine-2,4-dione], the microsomal CLint in data set [2] (human, microsomes) was less than 7 µL/min/mg; in data set [5] (mouse, microsomes), less than 7 µL/min/mg. Moreover, the 50% effective dose (ED50) (in general, the dose at which the effect has come halfway, by size or by number of responders) with S. mansoni [3] (setting [8]) was found to be 7.3 mg/kg; in the data set on S. mansoni [3] (setting [9]) it was 73 mg/kg. Moreover, the Sol2.0 in [4] (pH 2) is recorded as >100/>100 μg/mL. In [4] (pH 6.5), the Sol6.5 is >100/>100 μg/mL. Further, the IC50 (commonly the concentration that inhibits the measured activity by half) in the data set on LAPC4 cells (setting [10]) is 13 µM. Also, the chromatographic logD in data set [6] (setting [11]) was 2.7. In data set [7] (po, 100 mg/kg), the AUC(0-t) is 1820 µg·h/mL. For the same compound, the Cmax (commonly the maximum level reached in the sampled fluid or tissue) in data set [7] (po, 100 mg/kg) is 43000 ng/mL.
Consider `CC1(C(F)(F)F)NC(=O)N(c2ccc(F)c(C(F)(F)F)c2)C1=O` (stereo not drawn) [IA, 3-(4-Fluoro-3-(trifluoromethyl)phenyl)-5-methyl-5-(trifluoromethyl)imidazolidine-2,4-dione], for which the microsomal CLint was less than 7 µL/min/mg in data set [2] (human liver microsomes, read-out: h CLint) and less than 7 µL/min/mg in data set [5] (mouse liver microsomes, read-out: m CLint). The ED50 in the data set with S. mansoni [3] (po, read-out: S. mansoni ED50, adult) is 14 mg/kg; in the data set on S. mansoni [3] (po, read-out: S. mansoni ED50, juvenile), 70 mg/kg. Further, the Sol2.0 in data set [4] (kinetic solubility, 0.01 M HCl (approx. pH 2.0)) is listed as 25-50/25-50 μg/mL. The Sol6.5 in data set [4] (kinetic solubility, pH 6.5 phosphate buffer) was 25-50/25-50 μg/mL. For the same compound, in the data set on LAPC4 cells (LAPC4, read-out: LAPC4 IC50), the IC50 worked out at 5.2 µM. The chromatographic logD in data set [6] (setting [11]) is 3.5. In addition, in data set [7] (100 mg/kg PO in mice, read-out: AUC0-last), the AUC(0-t) came out at 966 µg·h/mL. In [7] (100 mg/kg PO in mice, read-out: Cmax), the Cmax turned out to be 28000 ng/mL.
For the compound `CC1(C(F)F)NC(=O)N(c2ccc(F)c(C(F)(F)F)c2)C1=O` (stereo not drawn) [ID, 5-(Difluoromethyl)-3-(4-fluoro-3-(trifluoromethyl)phenyl)-5-methylimidazolidine-2,4-dione], the microsomal CLint in data set [2] (human, microsomes) is less than 7 µL/min/mg; in [5] (mouse, microsomes) it was less than 7 µL/min/mg. Further, the ED50 was determined as 9 mg/kg with S. mansoni [3] (setting [8]) and 88 mg/kg with S. mansoni [3] (setting [9]). Further, in data set [4] (pH 2), the Sol2.0 is reported as 50-100/50-100 μg/mL. For the same compound, the Sol6.5 in data set [4] (pH 6.5) is 50-100/50-100 μg/mL. Besides, the IC50 in the data set with LAPC4 cells (setting [10]) turned out to be 4.2 µM. In [6] (pH 7.4), this compound had a chromatographic logD of 3.2. Moreover, the AUC(0-t) in data set [7] (po, 100 mg/kg) was found to be 1650 µg·h/mL. The concentration in data set [7] (po, 100 mg/kg) peaked (Cmax) at 42000 ng/mL.
Regarding `O=C(C1CCCCC1)N1CC(=O)N2CCc3ccccc3C2C1` (stereo not drawn) [Praziquantel, praziquantel, reference compound], the “Worm burden reduction (WBR)” value in the data set with S. mansoni [3] (NOD-SCID (Prkdc^scid) mice) is recorded as 83%; in the data set with S. mansoni [3] (NOD-SCID (Prkdc^scid) mice, listed as Praziquantel (PZQ)), 83%; in the data set on S. mansoni [3] (outbred NMRI mice), 96%. Moreover, in the data set on S. mansoni [1] (schistosome mouse model, literature), the “activity against juvenile stages of the parasite” value is reported as “no significant activity”.
